Experimental data from US7563805B2, “Tri-, tetra-substituted-3-aminopyrrolidine derivative” (Daiichi Pharmaceutical Co., Ltd., priority 2005, dated 2009).
Values after ≈ are worked out from the molar mass of the structure shown. Like-named read-outs stand apart in the source and are kept apart here.

Assays:
[1] = target: hERG K+ channel (Homo sapiens, UniProt Q12809); test: hERG-K^+ channel blocking effect
[2] = test system: E. faecalis, ATCC 19433; test: antibacterial activity (MIC), standard method of Japanese Society of Chemotherapy
[3] = test system: P. aeruginosa, 32121; test: as above
[4] = test system: S. marscecens, 10100; test: as above
[5] = test system: E. coli NIHJ; test: as above
[6] = test system: P. aeruginosa, 32104; test: as above
[7] = test system: S. aureus, 209P; test: as above
[8] = test system: P. vulgaris, 08601; test: as above
[9] = test system: S. aureus, 87037 (LVFX-resistant MRSA); test: as above
[10] = test system: S. epidermidis, 56500; test: as above
[11] = test system: S. pneumoniae, J24 (penicillin-intermediate resistant bacteria); test: as above
[12] = Enterococcus faecalis, ATCC19433, E. faecalis
[13] = Proteus vulgaris, 08601, P. vulgaris
[14] = Staphylococcus aureus, MRSA, S. aureus, 87037 (LVFX-resistant MRSA)
[15] = Staphylococcus epidermidis, 56500, S. epidermidis

hERG K+ channel, sequence (Q12809 whole entry): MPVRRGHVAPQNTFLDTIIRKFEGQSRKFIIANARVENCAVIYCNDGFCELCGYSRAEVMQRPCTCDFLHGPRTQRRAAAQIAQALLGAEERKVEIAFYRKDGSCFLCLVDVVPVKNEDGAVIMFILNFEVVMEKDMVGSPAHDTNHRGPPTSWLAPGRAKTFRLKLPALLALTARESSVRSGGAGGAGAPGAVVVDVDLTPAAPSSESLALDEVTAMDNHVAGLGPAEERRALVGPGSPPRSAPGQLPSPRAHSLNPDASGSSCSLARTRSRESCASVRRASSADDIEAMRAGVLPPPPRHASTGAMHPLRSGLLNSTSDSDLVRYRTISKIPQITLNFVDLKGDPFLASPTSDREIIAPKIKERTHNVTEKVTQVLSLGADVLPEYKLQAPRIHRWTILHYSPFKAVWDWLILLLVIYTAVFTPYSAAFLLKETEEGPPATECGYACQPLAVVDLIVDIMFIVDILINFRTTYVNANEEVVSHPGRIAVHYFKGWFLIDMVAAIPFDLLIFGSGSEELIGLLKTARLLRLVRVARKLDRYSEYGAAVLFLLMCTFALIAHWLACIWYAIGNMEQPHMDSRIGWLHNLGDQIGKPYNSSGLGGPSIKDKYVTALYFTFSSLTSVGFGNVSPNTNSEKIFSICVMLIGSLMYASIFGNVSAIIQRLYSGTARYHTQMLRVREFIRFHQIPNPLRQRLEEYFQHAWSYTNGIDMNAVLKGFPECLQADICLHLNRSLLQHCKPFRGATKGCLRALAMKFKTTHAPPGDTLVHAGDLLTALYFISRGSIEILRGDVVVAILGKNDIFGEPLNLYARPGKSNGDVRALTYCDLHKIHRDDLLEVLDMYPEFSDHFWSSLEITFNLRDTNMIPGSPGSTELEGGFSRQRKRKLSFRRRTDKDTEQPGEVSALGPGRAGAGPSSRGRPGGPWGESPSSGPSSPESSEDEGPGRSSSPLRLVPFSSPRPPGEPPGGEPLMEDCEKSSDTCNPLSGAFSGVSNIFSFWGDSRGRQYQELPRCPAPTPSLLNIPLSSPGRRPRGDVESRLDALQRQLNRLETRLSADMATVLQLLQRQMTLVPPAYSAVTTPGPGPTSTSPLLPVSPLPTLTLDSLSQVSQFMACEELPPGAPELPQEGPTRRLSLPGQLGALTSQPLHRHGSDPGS

| melting point | Compound | inhibition at 30 µM [1] | inhibition at 100 µM [1] | inhibition at 300 µM [1] | MIC [4] | MIC [2, 12] | MIC ([3]; Pseudomonas aeruginosa) | MIC ([5]; Escherichia coli) | MIC ([7]; Staphylococcus aureus) | MIC [8, 13] | MIC [10, 15] | MIC ([11]; Streptococcus pneumoniae) | also measured |
| --- | --- | --- | --- | --- | --- | --- | --- | --- | --- | --- | --- | --- | --- |
| 187 to 189 °C | COc1c(N2C[C@H](CF)[C@](C)(N)C2)c(F)cc2c(=O)c(C(=O)O)cn([C@@H]3C[C@@H]3F)c12 [Example 20, 7-[(3S,4S)-3-Amino-4-fluoromethyl-3-methylpyrrolidin-1-yl]-6-fluoro-1-[(1R,2S)-2-fluoro-1-cyclopropyl]-8-methoxy-1,4-dihydro-4-oxoquinoline-3-carboxylic acid] | 1.4 ± 4.5% | 8.5 ± 6.1% | 14.5 ± 6% | – | – | – | – | – | – | – | – | – |
| 185 to 188 °C | COc1c(N2C[C@@H](CF)[C@@](C)(N)C2)c(F)cc2c(=O)c(C(=O)O)cn([C@@H]3C[C@@H]3F)c12 [Example 24, 7-[(3R,4R)-3-Amino-4-fluoromethyl-3-methylpyrrolidin-1-yl]-6-fluoro-1-[(1R,2S)-2-fluoro-1-cyclopropyl]-8-methoxy-1,4-dihydro-4-oxoquinoline-3-carboxylic acid] | – | – | – | – | – | – | – | – | – | – | – | – |
| – | COc1c(N2CC(C)(N)C3(CC3)C2)c(F)cc2c(=O)c(C(=O)O)cn([C@@H]3C[C@@H]3F)c12 (stereo partly drawn) [Example 10, 7-(7-Amino-7-methyl-5-azaspiro[2.4]heptan-5-yl)-6-fluoro-1-[(1R,2S)-2-fluorocyclopropyl]-8-methoxy-1,4-dihydro-4-oxoguinoline-3-carboxylic acid] | – | – | – | 0.2 µg/mL (≈ 0.477 µM) | – | – | – | – | – | – | – | MIC ([2]; E. faecalis): 0.78 µg/mL (≈ 1.86 µM); MIC ([3]; P. aeruginosa): 0.2 µg/mL (≈ 0.477 µM); MIC ([5]; E. coli NIHJ): 0.025 µg/mL (≈ 0.0596 µM); MIC ([6]; P. aeruginosa): 0.39 µg/mL (≈ 0.93 µM); MIC [7]: 0.05 µg/mL (≈ 0.119 µM); MIC ([8]; P. vulgaris): 0.05 µg/mL (≈ 0.119 µM); MIC ([9]; S. aureus, 87037 (LVFX-resistant MRSA)): 1.56 µg/mL (≈ 3.72 µM); MIC ([10]; S. epidermidis): 0.2 µg/mL (≈ 0.477 µM); MIC [11]: 0.39 µg/mL (≈ 0.93 µM) |
| – | COc1c(N2CC(C)C(C)(N)C2)c(F)cc2c(=O)c(C(=O)O)cn([C@@H]3C[C@@H]3F)c12 (relative stereo) [Example 1, 7-[(3R*,4S*)-3-Amino-3,4-dimethylpyrrolidin-1-yl]-6-fluoro-1-[(1R,2S)-2-fluorocyclopropyl]-8-methoxy-1,4-dihydro-4-oxoguinoline-3-carboxylic acid] | – | – | – | 0.2 µg/mL (≈ 0.491 µM) | 0.2 µg/mL (≈ 0.491 µM) | 0.2 µg/mL (≈ 0.491 µM) | 0.025 µg/mL (≈ 0.0614 µM) | 0.025 µg/mL (≈ 0.0614 µM) | 0.05 µg/mL (≈ 0.123 µM) | 0.1 µg/mL (≈ 0.245 µM) | 0.1 µg/mL (≈ 0.245 µM) | MIC ([6]; Pseudomonas aeruginosa): 0.39 µg/mL (≈ 0.957 µM); MIC [9, 14]: 0.78 µg/mL (≈ 1.91 µM) |
| – | COc1c(N2CCNC(C)C2)c(F)cc2c(=O)c(C(=O)O)cn(C3CC3)c12 (centres unmarked) [GTFX, gatifloxacin, reference compound] | 8.1 ± 6% | 17.6 ± 11.5% | 39 ± 10.8% | 0.1 µg/mL (≈ 0.266 µM) | 0.39 µg/mL (≈ 1.04 µM) | 0.1 µg/mL (≈ 0.266 µM) | 0.006 µg/mL (≈ 0.016 µM) | 0.05 µg/mL (≈ 0.133 µM) | 0.006 µg/mL (≈ 0.016 µM) | 0.2 µg/mL (≈ 0.533 µM) | 0.2 µg/mL (≈ 0.533 µM) | MIC ([6]; Pseudomonas aeruginosa): 0.2 µg/mL (≈ 0.533 µM); MIC ([9]; Staphylococcus aureus, MRSA): 1.56 µg/mL (≈ 4.16 µM) |
| 160 to 163 °C | COc1c(N2CC(F)[C@](C)(N)C2)c(F)cc2c(=O)c(C(=O)O)cn([C@@H]3C[C@@H]3F)c12 (single isomer, unassigned) [Example 25] | 2 ± 7.2% | 4.2 ± 7.9% | 17.1 ± 14.4% | – | – | – | – | – | – | – | – | – |
| 206 to 208 °C | COc1c(N2CC(F)[C@](C)(N)C2)c(F)cc2c(=O)c(C(=O)O)cn([C@@H]3C[C@@H]3F)c12 (single isomer, unassigned) [Example 26] | – | – | – | – | – | – | – | – | – | – | – | – |

| Compound | melting point | inhibition at 30 µM [1] | inhibition at 100 µM [1] | inhibition at 300 µM [1] | MIC [4] | MIC [2, 12] | MIC ([3]; Pseudomonas aeruginosa) | MIC ([5]; Escherichia coli) | MIC ([7]; Staphylococcus aureus) | MIC [8, 13] | MIC [10, 15] | MIC ([11]; Streptococcus pneumoniae) | also measured |
| --- | --- | --- | --- | --- | --- | --- | --- | --- | --- | --- | --- | --- | --- |
| Cc1c(N2CC(C)[C@@](N)(CF)C2)c(F)cc2c(=O)c(C(=O)O)cn([C@@H]3C[C@@H]3F)c12 (stereo partly drawn) [Example 31, 7-[(3S)-3-Amino-3-fluoromethyl-4-methylpyrrolidin-1-yl]-6-fluoro-1-[(1R,2S)-2-fluoro-1-cyclopropyl]-8-methyl-1,4-dihydro-4-oxoquinoline-3-carboxylic acid] | 200 to 203 °C | – | – | – | 0.1 µg/mL (≈ 0.244 µM) | 0.1 µg/mL (≈ 0.244 µM) | 0.05 µg/mL (≈ 0.122 µM) | 0.006 µg/mL (≈ 0.0147 µM) | 0.012 µg/mL (≈ 0.0293 µM) | 0.012 µg/mL (≈ 0.0293 µM) | 0.025 µg/mL (≈ 0.0611 µM) | 0.05 µg/mL (≈ 0.122 µM) | MIC [9, 14]: 0.1 µg/mL (≈ 0.244 µM) |
